Some results are limits rather than exact numbers.

The inhibition is the change of the read-out against control, counted positive when it falls.

For the first test, the system named is M14. Kind of test: NCI-60 single-dose screen. It counts as cell-based. Particulars: Homo sapiens, single dose 10 µM, '-' = no inhibition, read-out: % Growth Inhibition. The method in brief: (§1)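 Compounds tested once at 10 μM across the NCI-60 panel of 60 human cancer cell lines spanning nine tumour types (leukemia, lung, colon, CNS, melanoma, ovarian, renal, prostate, breast), run by the NCI Developmental Therapeutics Program.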
Consider `C=CCSc1nc(-c2ccc(Cl)cc2)cc(-c2ccc(OC)c(OC)c2)n1` [Compound 27, 2-(Allylthio)-4-(4-chlorophenyl)-6-(3,4-dimethoxyphenyl)pyrimidine], for which the inhibition at 10 µM was 0.06%.

The subject of another test is UACC-257. Kind of test: NCI-60 single-dose screen. The format is cell-based. Particulars: Homo sapiens, single dose 10 µM, '-' = no inhibition, read-out: % Growth Inhibition. In a few lines:
as §1
Regarding `C=CCSc1nc(-c2ccc(Cl)cc2)cc(-c2ccc(OC)c(OC)c2)n1` [Compound 27, 2-(Allylthio)-4-(4-chlorophenyl)-6-(3,4-dimethoxyphenyl)pyrimidine], the inhibition at 10 µM was under 0%.

For a further test, the system named is RPMI-8226. Kind of test: NCI-60 single-dose screen. The format is cell-based. The conditions noted are these: Homo sapiens, single dose 10 µM, '-' = no inhibition, read-out: % Growth Inhibition. The method in brief:
as §1
For the molecule `C=CCSc1nc(-c2ccc(Cl)cc2)cc(-c2ccc(OC)c(OC)c2)n1` [Compound 27, 2-(Allylthio)-4-(4-chlorophenyl)-6-(3,4-dimethoxyphenyl)pyrimidine], the inhibition at 10 µM was determined as 14.3%.

In another test the test system is NCI/ADR-RES. Kind of test: NCI-60 single-dose screen. It counts as cell-based. The conditions noted are these: Homo sapiens, single dose 10 µM, '-' = no inhibition, read-out: % Growth Inhibition. In a few lines: as §1
Take `C=CCSc1nc(-c2ccc(Cl)cc2)cc(-c2ccc(OC)c(OC)c2)n1` [Compound 27, 2-(Allylthio)-4-(4-chlorophenyl)-6-(3,4-dimethoxyphenyl)pyrimidine]: the inhibition at 10 µM was 21.8%.

A further test deals with OVCAR-5. Kind of test: NCI-60 single-dose screen. The format is cell-based. The conditions noted are these: Homo sapiens, single dose 10 µM, '-' = no inhibition, read-out: % Growth Inhibition. The method in brief:
as §1
Take `C=CCSc1nc(-c2ccc(Cl)cc2)cc(-c2ccc(OC)c(OC)c2)n1` [Compound 27, 2-(Allylthio)-4-(4-chlorophenyl)-6-(3,4-dimethoxyphenyl)pyrimidine]: the inhibition at 10 µM was under 0%.

The next test has as its system OVCAR-8. Kind of test: NCI-60 single-dose screen. Particulars: Homo sapiens, single dose 10 µM, '-' = no inhibition, read-out: % Growth Inhibition. The format is cell-based. In a few lines:
as §1
As for `C=CCSc1nc(-c2ccc(Cl)cc2)cc(-c2ccc(OC)c(OC)c2)n1` [Compound 27, 2-(Allylthio)-4-(4-chlorophenyl)-6-(3,4-dimethoxyphenyl)pyrimidine], the inhibition at 10 µM was determined as 7.89%.

For the next test, the system named is EKVX. Kind of test: NCI-60 single-dose screen. The format is cell-based. The conditions noted are these: Homo sapiens, single dose 10 µM, '-' = no inhibition, read-out: % Growth Inhibition. The method in brief:
as §1
On to `C=CCSc1nc(-c2ccc(Cl)cc2)cc(-c2ccc(OC)c(OC)c2)n1` [Compound 27, 2-(Allylthio)-4-(4-chlorophenyl)-6-(3,4-dimethoxyphenyl)pyrimidine], for which the inhibition at 10 µM is 12.2%.

Another test has as its system SNB-19. Briefly: NCI-60 single-dose screen. The format is cell-based. Particulars: Homo sapiens, single dose 10 µM, '-' = no inhibition, read-out: % Growth Inhibition. The method in brief: as §1
In the case of `C=CCSc1nc(-c2ccc(Cl)cc2)cc(-c2ccc(OC)c(OC)c2)n1` [Compound 27, 2-(Allylthio)-4-(4-chlorophenyl)-6-(3,4-dimethoxyphenyl)pyrimidine], the inhibition at 10 µM turned out to be 8.39%.

The next test relates to A549/ATCC. Briefly: NCI-60 single-dose screen. The format is cell-based. The conditions noted are these: Homo sapiens, single dose 10 µM, '-' = no inhibition, read-out: % Growth Inhibition. The method in brief:
as §1
For the molecule `C=CCSc1nc(-c2ccc(Cl)cc2)cc(-c2ccc(OC)c(OC)c2)n1` [Compound 27, 2-(Allylthio)-4-(4-chlorophenyl)-6-(3,4-dimethoxyphenyl)pyrimidine], the inhibition at 10 µM was 12.3%.

For a further test, the system named is SR. Briefly: NCI-60 single-dose screen. It counts as cell-based. Particulars: Homo sapiens, single dose 10 µM, '-' = no inhibition, read-out: % Growth Inhibition. The method in brief: as §1
Turning to `C=CCSc1nc(-c2ccc(Cl)cc2)cc(-c2ccc(OC)c(OC)c2)n1` [Compound 27, 2-(Allylthio)-4-(4-chlorophenyl)-6-(3,4-dimethoxyphenyl)pyrimidine], the inhibition at 10 µM was found to be 30.3%.

The subject of the next test is NCI-H322M. Kind of test: NCI-60 single-dose screen. The format is cell-based. The conditions noted are these: Homo sapiens, single dose 10 µM, '-' = no inhibition, read-out: % Growth Inhibition. The method in brief: as §1
With `C=CCSc1nc(-c2ccc(Cl)cc2)cc(-c2ccc(OC)c(OC)c2)n1` [Compound 27, 2-(Allylthio)-4-(4-chlorophenyl)-6-(3,4-dimethoxyphenyl)pyrimidine], the inhibition at 10 µM is under 0%.

The next test relates to SNB-75. Briefly: NCI-60 single-dose screen. It counts as cell-based. Particulars: Homo sapiens, single dose 10 µM, '-' = no inhibition, read-out: % Growth Inhibition. In a few lines: as §1
On to `C=CCSc1nc(-c2ccc(Cl)cc2)cc(-c2ccc(OC)c(OC)c2)n1` [Compound 27, 2-(Allylthio)-4-(4-chlorophenyl)-6-(3,4-dimethoxyphenyl)pyrimidine], for which the inhibition at 10 µM was under 0%.

The test system of a further test is IGROV1. Briefly: NCI-60 single-dose screen. Particulars: Homo sapiens, IGROV-1, single dose 10 µM, '-' = no inhibition, read-out: % Growth Inhibition. It counts as cell-based. In a few lines: as §1
Turning to `C=CCSc1nc(-c2ccc(Cl)cc2)cc(-c2ccc(OC)c(OC)c2)n1` [Compound 27, 2-(Allylthio)-4-(4-chlorophenyl)-6-(3,4-dimethoxyphenyl)pyrimidine], the inhibition at 10 µM was under 0%.

The test system of another test is HCT-15. Kind of test: NCI-60 single-dose screen. The format is cell-based. The conditions noted are these: Homo sapiens, single dose 10 µM, '-' = no inhibition, read-out: % Growth Inhibition. The method in brief: as §1
Take `C=CCSc1nc(-c2ccc(Cl)cc2)cc(-c2ccc(OC)c(OC)c2)n1` [Compound 27, 2-(Allylthio)-4-(4-chlorophenyl)-6-(3,4-dimethoxyphenyl)pyrimidine]: the inhibition at 10 µM is 18.8%.

The next test has as its system HL-60(TB). Briefly: NCI-60 single-dose screen. The format is cell-based. The conditions noted are these: Homo sapiens, single dose 10 µM, '-' = no inhibition, read-out: % Growth Inhibition.
Regarding `C=CCSc1nc(-c2ccc(Cl)cc2)cc(-c2ccc(OC)c(OC)c2)n1` [Compound 27, 2-(Allylthio)-4-(4-chlorophenyl)-6-(3,4-dimethoxyphenyl)pyrimidine], the inhibition at 10 µM is 29.2%.

The subject of another test is NCI-H23. Kind of test: NCI-60 single-dose screen. It counts as cell-based. The conditions noted are these: Homo sapiens, single dose 10 µM, '-' = no inhibition, read-out: % Growth Inhibition. The method in brief:
as §1
Regarding `C=CCSc1nc(-c2ccc(Cl)cc2)cc(-c2ccc(OC)c(OC)c2)n1` [Compound 27, 2-(Allylthio)-4-(4-chlorophenyl)-6-(3,4-dimethoxyphenyl)pyrimidine], the inhibition at 10 µM turned out to be 7.78%.

Another test relates to MDA-MB231/ATCC. Briefly: NCI-60 single-dose screen. It counts as cell-based. Particulars: Homo sapiens, MDA-MB-231, single dose 10 µM, '-' = no inhibition, read-out: % Growth Inhibition. In a few lines: as §1
As to `C=CCSc1nc(-c2ccc(Cl)cc2)cc(-c2ccc(OC)c(OC)c2)n1` [Compound 27, 2-(Allylthio)-4-(4-chlorophenyl)-6-(3,4-dimethoxyphenyl)pyrimidine], the inhibition at 10 µM worked out at 7.53%.

The subject of a further test is PC-3. Kind of test: NCI-60 single-dose screen. It counts as cell-based. The conditions noted are these: Homo sapiens, single dose 10 µM, '-' = no inhibition, read-out: % Growth Inhibition. In a few lines:
as §1
As for `C=CCSc1nc(-c2ccc(Cl)cc2)cc(-c2ccc(OC)c(OC)c2)n1` [Compound 27, 2-(Allylthio)-4-(4-chlorophenyl)-6-(3,4-dimethoxyphenyl)pyrimidine], the inhibition at 10 µM came out at 15.7%.

The subject of the next test is SK-MEL-2. Kind of test: NCI-60 single-dose screen. It counts as cell-based. The conditions noted are these: Homo sapiens, single dose 10 µM, '-' = no inhibition, read-out: % Growth Inhibition. The method in brief: as §1
As for `C=CCSc1nc(-c2ccc(Cl)cc2)cc(-c2ccc(OC)c(OC)c2)n1` [Compound 27, 2-(Allylthio)-4-(4-chlorophenyl)-6-(3,4-dimethoxyphenyl)pyrimidine], the inhibition at 10 µM stood at 0.52%.

The next test has as its system 786-0. Kind of test: NCI-60 single-dose screen. The format is cell-based. The conditions noted are these: Homo sapiens, single dose 10 µM, '-' = no inhibition, read-out: % Growth Inhibition. In a few lines: as §1
In the case of `C=CCSc1nc(-c2ccc(Cl)cc2)cc(-c2ccc(OC)c(OC)c2)n1` [Compound 27, 2-(Allylthio)-4-(4-chlorophenyl)-6-(3,4-dimethoxyphenyl)pyrimidine], the inhibition at 10 µM came out at 2.53%.

For the next test, the system named is UACC-62. Kind of test: NCI-60 single-dose screen. It counts as cell-based. Particulars: Homo sapiens, single dose 10 µM, '-' = no inhibition, read-out: % Growth Inhibition. In a few lines: as §1
Regarding `C=CCSc1nc(-c2ccc(Cl)cc2)cc(-c2ccc(OC)c(OC)c2)n1` [Compound 27, 2-(Allylthio)-4-(4-chlorophenyl)-6-(3,4-dimethoxyphenyl)pyrimidine], the inhibition at 10 µM is 26%.

A further test concerns SK-OV-3. Kind of test: NCI-60 single-dose screen. Particulars: Homo sapiens, single dose 10 µM, '-' = no inhibition, read-out: % Growth Inhibition. It counts as cell-based. The method in brief: as §1
Consider `C=CCSc1nc(-c2ccc(Cl)cc2)cc(-c2ccc(OC)c(OC)c2)n1` [Compound 27, 2-(Allylthio)-4-(4-chlorophenyl)-6-(3,4-dimethoxyphenyl)pyrimidine], for which the inhibition at 10 µM was under 0%.

The subject of the next test is UO-31. Briefly: NCI-60 single-dose screen. Particulars: Homo sapiens, single dose 10 µM, '-' = no inhibition, read-out: % Growth Inhibition. The format is cell-based. In a few lines:
as §1
Consider `C=CCSc1nc(-c2ccc(Cl)cc2)cc(-c2ccc(OC)c(OC)c2)n1` [Compound 27, 2-(Allylthio)-4-(4-chlorophenyl)-6-(3,4-dimethoxyphenyl)pyrimidine], for which the inhibition at 10 µM came out at 22.9%.
